pIC50: −log10 of the molar value. Where two headings read alike, the source gives them in different places. Bounds are passed on as bounds.

The source of these data is patent US20060063784A1, “Method of using substituted pyrazolo [1,5-a] pyrimidines” (priority 2004, published 2006).

In experiment [1] the test system is 80S14 (p21-deficient) cells. As to the kind of experiment: Cytotoxicity assay using isogenic cell lines: IC50 in 80S14 (p21-deficient) cells, SRB. The class given is cell-based, human. The settings on record: Homo sapiens; for pIC50: 120 h, 80S14 (p21-deficient) cells, 5 days, SRB, class symbols, read-out: IC50 for 80S14; for IC50: 80S14, 120 h, read-out: IC50 for 80S14 (uM). In short, it runs like this: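 80S14 (p21-deficient) cells seeded at 12,000 cells/well overnight, then exposed 5 days at 37 °C to serial dilutions (5 pM–50 μM or 170 pg/ml–10 μg/ml). TCA-fixed, sulforhodamine B-stained, absorbance at 560 nm; IC50 taken from cytotoxicity curves versus untreated controls.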

Another experiment has as its system LoVo Colon cell line. As to the kind of experiment: Cytotoxicity assay using LoVo colon cell line, SRB. The following applies: Homo sapiens, 96 h, read-out: Inhibition of LoVo. In kind it is cell-based. A digest of the protocol: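 LoVo cells (4000/well, RPMI 1640 with 10% FBS, 37 °C, 7% CO2) seeded overnight, then exposed 4 days to serial dilutions spanning 5 pM-20 μM or 170 pg/ml-10 μg/ml. Survival by SRB staining; IC50 from curves relative to untreated controls.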

Setting [2] is: Cellular activity in LoVo cell, 4 days incubation, SRB.

Consider `O=C(Nc1cccc(-c2ccnc3c(C(=O)c4cccs4)cnn23)c1)c1ccccc1` [Example 284, N-{3-[3-(2-Thienylcarbonyl)pyrazolo[1,5-a]pyrimidin-7-yl]phenyl}benzamide], for which the pIC50 is greater than 6.00 in experiment [1] and greater than 7.00 in the experiment on LoVo Colon cell line (setting [2]).

Regarding `O=C(Nc1cccc(-c2ccnc3c(C(=O)c4cccs4)cnn23)c1)c1ccco1` [Example 285, N-{3-[3-(2-Thienylcarbonyl)pyrazolo[1,5-a]pyrimidin-7-yl]phenyl}-2-furamide], the pIC50 is greater than 6.00 in experiment [1] and greater than 7.00 in the experiment with LoVo Colon cell line (setting [2]).

With `O=C(Nc1cccc(-c2ccnc3c(C(=O)c4cccs4)cnn23)c1)c1cccnc1` [Example 290, N-{3-[3-(2-Thienylcarbonyl)pyrazolo[1,5-a]pyrimidin-7-yl]phenyl}nicotinamide], the pIC50 in experiment [1] was greater than 6.00; in the experiment on LoVo Colon cell line (setting [2]) it was 6.00 to 7.00.

In the case of `CC(C)OC(=O)Nc1cccc(-c2ccnc3c(C(=O)c4ccsc4)cnn23)c1` [Example 293, Isopropyl 3-[3-(3-thienylcarbonyl)pyrazolo[1,5-a]pyrimidin-7-yl]phenylcarbamate], the IC50 in experiment [1] is less than 1 µM. Besides, in the experiment on LoVo Colon cell line (LoVo), the pIC50 is greater than 7.00.

Turning to `CC(C)CC(=O)Nc1cccc(-c2ccnc3c(C(=O)c4ccsc4)cnn23)c1` [Example 297, 3-Methyl-N-{3-[3-(3-thienylcarbonyl)pyrazolo[1,5-a]pyrimidin-7-yl]phenyl}butanamide], in experiment [1], the IC50 was less than 1 µM. In addition, the pIC50 in the experiment with LoVo Colon cell line (LoVo) was greater than 7.00.

In the case of `O=C(CC1CCCC1)Nc1cccc(-c2ccnc3c(C(=O)c4ccco4)cnn23)c1` [Example 303, 2-Cyclopentyl-N-{3-[3-(2-furoyl)pyrazolo[1,5-a]pyrimidin-7-yl]phenyl}acetamide], the results for the pIC50 (in experiment [1]; in the experiment with LoVo Colon cell line (setting [2])) were greater than 6.00 and greater than 7.00, respectively.

Take `Cc1ccc(-c2ccnc3c(C(=O)c4cccs4)cnn23)cc1NC(=O)NC(C)C` [Example 311, N-Isopropyl-N′-{2-methyl-5-[3-(2-thienylcarbonyl)pyrazolo[1,5-a]pyrimidin-7-yl]phenyl}urea]: the pIC50 in experiment [1] is greater than 6.00; in the experiment with LoVo Colon cell line (setting [2]), greater than 7.00.

With `O=C(Nc1cc(-c2ccnc3c(C(=O)c4cccs4)cnn23)ccc1Cl)c1ccccc1` [Example 312, N-{2-Chloro-5-[3-(2-thienylcarbonyl)pyrazolo[1,5-a]pyrimidin-7-yl]phenyl}benzamide], the pIC50 in experiment [1] was greater than 6.00; in the experiment on LoVo Colon cell line (setting [2]), greater than 7.00.

With `CC(C)CC(=O)Nc1cc(-c2ccnc3c(C(=O)c4cccs4)cnn23)ccc1Cl` [Example 313, N-{2-Chloro-5-[3-(2-thienylcarbonyl)pyrazolo[1,5-a]pyrimidin-7-yl]phenyl}-3-Methylbutanamide], the IC50 in experiment [1] is less than 1 µM. In the experiment on LoVo Colon cell line (LoVo), the pIC50 is greater than 7.00.

Consider `Cc1ccc(-c2ccnc3c(C(=O)c4cccs4)cnn23)cc1NC(=O)OC(C)C` [Example 314, Isopropyl 2-methyl-5-[3-(2-thienylcarbonyl)pyrazolo[1,5-a]pyrimidin-7-yl]phenylcarbamate], for which, in experiment [1], the IC50 was less than 1 µM. Also, the pIC50 in the experiment with LoVo Colon cell line (LoVo) is greater than 7.00.

For `CC(C)CC(=O)Nc1cncc(-c2ccnc3c(C(=O)c4cccs4)cnn23)c1` [Example 324, 3-Methyl-N-{5-[3-(2-thienylcarbonyl)pyrazolo[1,5-a]pyrimidin-7-yl]-3-pyridinyl}butanamide], the pIC50 is 5.00 to 6.00 in experiment [1] and 6.00 to 7.00 in the experiment with LoVo Colon cell line (setting [2]).

With `O=C(c1cccs1)c1cnn2c(-c3csc([N+](=O)[O-])c3)ccnc12` [Example 328, [7-(5-Nitro-3-thienyl)pyrazolo[1,5-a]pyrimidin-3-yl](2-thienyl)methanone], the results for the pIC50 (in experiment [1]; in the experiment with LoVo Colon cell line (setting [2])) were 5.00 to 6.00 and 6.00 to 7.00, respectively.

As to `CC(C)NC(=O)Nc1ccc(-c2ccnc3c(C(=O)c4cccs4)cnn23)s1` [Example 329, N-Isopropyl-N′-{5-[3-(thien-2-ylcarbonyl)pyrazolo[1,5-a]pyrimidin-7-yl]thien-2-yl}urea], the results for the pIC50 (in experiment [1]; in the experiment on LoVo Colon cell line (setting [2])) were 5.00 to 6.00 and 6.00 to 7.00, respectively.
